Measurements taken from patent US10683293B2, “Optionally fused heterocyclyl-substituted derivatives of pyrimidine useful for the treatment of inflammatory, metabolic, oncologic and autoimmune diseases” (NUEVOLUTION A/S, priority 2014, dated 2020).

Key:
[1] = biological target: T1, human RORγt (Ligand Binding Domain) (Homo sapiens, UniProt P51449); experiment: Fluorescence Polarization (FP) Assay; conditions: 100 nM human RORγt LBD, 25 nM TAMRA probe, values are activity range bounds
T1 construct: purchased Crelux (Planegg, Germany) batch no PC5032-1
T1 sequence (P51449 269-508 limits assumed): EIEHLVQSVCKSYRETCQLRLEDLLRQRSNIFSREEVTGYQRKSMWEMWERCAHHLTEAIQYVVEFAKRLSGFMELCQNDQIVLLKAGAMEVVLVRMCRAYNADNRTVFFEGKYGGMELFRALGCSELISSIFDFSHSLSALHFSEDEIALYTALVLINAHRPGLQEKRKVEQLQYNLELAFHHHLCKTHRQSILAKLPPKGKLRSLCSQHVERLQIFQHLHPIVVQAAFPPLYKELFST
Procedure, shortened: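 In vitro fluorescence polarization binding assay on the RORγt ligand-binding pocket. A TAMRA-labelled RORγt ligand probe (MW 910 g/mol) was used, with DMSO as negative control.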

[2] = biological target: T2, ligand binding domain of human RORγ (Homo sapiens, UniProt P51449); experiment: RORγ Reporter Assay (Gal4); type: cell-based; conditions: for inhibition at 1 µM: HEK-293T, read-out: Gal4 activity range @ 1 μM (% inhibition); for Gal4 activity range @ 0.1 μM (% inhibition): RORγ Reporter Assay (Gal4), HEK293t reporter cells, compound at 0.1 μM, values are activity range bounds
T2 construct: host or cells: HEK293t
T2 sequence (P51449 269-508 limits assumed): T1 sequence (P51449 269-508 limits assumed)
Procedure, shortened: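 HEK293t cells expressing Gal4 DBD–human RORγ LBD hybrid with Gal4-UAS firefly luciferase reporter; compounds at final 1,000 nM and 100 nM (0.1% DMSO), triplicate, medium with 10% charcoal-stripped FBS, 24 h at 37 °C. Luminescence read; percent reduction of RORγ activity calculated versus vehicle-only wells.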

[3] = 1 μM test compound, HEK293t RORγ reporter cells, 24 hour

Structure (SMILES) | IC50 [1] [nM] | inhibition at 1 µM [2, 3] [%] | Gal4 activity range @ 0.1 μM (% inhibition) [2] [% inhibition] | Gal4 activity range @ 1 μM (% inhibition) ([2]; 1 μM test compound, HEK293t RORγ reporter cells, 24 hour, 1 µM) [%]
N#Cc1ccc(CN(c2ncnc(NCc3ccc(CC(N)=O)cc3)c2F)C2CC2)cc1 [Example A64, 2-[4-[[[6-[(4-cyanophenyl)methyl-cyclopropyl-amino]-5-fluoro-pyrimidin-4-yl]amino]methyl]phenyl]acetamide] | < 500 | > 80 | >50 | 
NC(=O)Cc1ccc(CNc2ncnc(N(Cc3c(F)cccc3Cl)C3CC3)c2F)cc1 [Example A65, 2-[4-[[[6-[(2-chloro-6-fluoro-phenyl)methyl-cyclopropyl-amino]-5-fluoro-pyrimidin-4-yl]amino]methyl]phenyl]acetamide] | < 500 | > 50 | >20 | 
NC(=O)Cc1ccc(CNc2ncnc(N(Cc3ccccc3Cl)C3CC3)c2F)cc1 [Example A66, 2-[4-[[[6-[(2-chlorophenyl)methyl-cyclopropyl-amino]-5-fluoro-pyrimidin-4-yl]amino]methyl]phenyl]acetamide] | < 500 | > 50 | >20 | 
Cc1cccc(Cl)c1CN(c1ncnc(NCc2ccc(CC(N)=O)cc2)c1F)C1CC1 [Example A67, 2-[4-[[[6-[(2-chloro-6-methyl-phenyl)methyl-cyclopropyl-amino]-5-fluoro-pyrimidin-4-yl]amino]methyl]phenyl]acetamide] | < 500 | > 50 | >20 | 
CCCn1nc(C)cc1CN(C)c1ncnc(NCc2ccc(CC(N)=O)cc2)c1F [Example A68, 2-[4-[[[5-fluoro-6-[methyl-[(5-methyl-2-propyl-pyrazol-3-yl)methyl]amino]pyrimidin-4-yl]amino]methyl]phenyl]acetamide] | < 500 |  | >0 | >50
CC(c1ccc(C(F)(F)F)cc1)N(c1ncnc(NCC2CCN(S(C)(=O)=O)CC2)c1F)C1CC1 (stereo not shown) [Example A73, N4-cyclopropyl-5-fluoro-N6-[(1-methylsulfonyl-4-piperidyl)methyl]-N4-[1-[4-(trifluoromethyl)phenyl]ethyl] pyrimidine-4,6-diamine] | < 500 | > 80 | >80 | 
CC(c1ccc(C(F)(F)F)cc1)N(c1ncnc(NCc2ccc(NS(=O)(=O)C(F)(F)F)cc2)c1F)C1CC1 (stereo not shown) [Example A74, N-[4-[[[6-[cyclopropyl-[1-[4-(trifluoromethyl)phenyl]ethyl]amino]-5-fluoro-pyrimidin-4-yl]amino]methyl]phenyl]-1,1,1-trifluoro-methanesulfonamide] | < 500 | > 50 | >0 | 
FCC1(CNc2ncnc(N(Cc3ccc(C(F)(F)F)cc3)C3CC3)c2F)CCOCC1 [Example A75, N4-cyclopropyl-5-fluoro-N6-[[4-(fluoromethyl)tetrahydropyran-4-yl]methyl]-N4-[[4-(trifluoromethyl)phenyl]methyl] pyrimidine-4,6-diamine] | < 500 | > 80 | >80 | 
C[S+]([O-])c1ccc(CNc2ncnc(N(Cc3ccc(C(F)(F)F)cc3)C3CC3)c2F)cc1 (stereo not shown) [Example A76, N4-cyclopropyl-5-fluoro-N6-[(4-methylsulfinylphenyl)methyl]-N4-[[4-(trifluoromethyl)phenyl]methyl] pyrimidine-4,6-diamine] | < 500 | > 80 | >80 | 
NC(=O)Cc1ccc(CNc2ncnc(N(Cc3c(Cl)cccc3Cl)C3CC3)c2F)cc1 [Example A77, 2-[4-[[[6-[cyclopropyl-[(2,6-dichlorophenyl)methyl]amino]-5-fluoro-pyrimidin-4-yl]amino]methyl]phenyl]acetamide] | < 500 | > 50 | >20 | 
NC(=O)Cc1ccc(CNc2ncnc(N(Cc3ccc(C(F)(F)F)cc3)C3CC3)c2F)cn1 [Example A78, 2-[5-[[[6-[cyclopropyl-[[4-(trifluoromethyl)phenyl]methyl]amino]-5-fluoro-pyrimidin-4-yl]amino]methyl]-2-pyridyl]acetamide] | < 500 | > 80 | >50 | 
O=C(O)CC1(CNc2ncnc(N(Cc3ccc(C(F)(F)F)cc3)C3CC3)c2F)CCOCC1 [Example A79, 2-[4-[[[6-[cyclopropyl-[[4-(trifluoromethyl)phenyl]methyl]amino]-5-fluoro-pyrimidin-4-yl]amino]methyl]tetrahydropyran-4-yl]acetic acid] | < 1000 | > 20 |  | 
CNC(=O)CC1(CNc2ncnc(N(Cc3ccc(C(F)(F)F)cc3)C3CC3)c2F)CCOCC1 [Example A80, 2-[4-[[[6-[cyclopropyl-[[4-(trifluoromethyl)phenyl]methyl]amino]-5-fluoro-pyrimidin-4-yl]amino]methyl]tetrahydropyran-4-yl]-N-methyl-acetamide] | < 500 | > 80 | >20 | 
CN(c1ncnc(NCc2ccc(CC(N)=O)cc2)c1F)C1(c2ccc(C(F)(F)F)cc2)CC1 [Example A81, 2-[4-[[[5-fluoro-6-[methyl-[1-[4-(trifluoromethyl)phenyl]cyclopropyl]amino]pyrimidin-4-yl]amino]methyl]phenyl]acetamide] | < 500 | > 80 | >50 | 
CC1(c2ccc(CNc3ncnc(N(Cc4ccc(C(F)(F)F)cc4)C4CC4)c3F)cc2)NC(=O)NC1=O (stereo not shown) [Example A82, 5-[4-[[[6-[cyclopropyl-[[4-(trifluoromethyl)phenyl]methyl]amino]-5-fluoro-pyrimidin-4-yl]amino]methyl]phenyl]-5-methyl-imidazolidine-2,4-dione] | < 1000 | > 80 | >20 | 
NC(=O)Cc1ccc(CNc2ncnc(N(Cc3ccc(C(F)(F)F)nc3)C3CC3)c2F)cc1 [Example A83, 2-[4-[[[6-[cyclopropyl-[[6-(trifluoromethyl)-3-pyridyl]methyl]amino]-5-fluoro-pyrimidin-4-yl]amino]methyl]phenyl]acetamide] | < 500 | > 80 | >50 | 
NC(=O)Cc1ccc(CNc2ncnc(N(Cc3ccc(C(F)(F)F)cn3)C3CC3)c2F)cc1 [Example A85, 2-[4-[[[6-[cyclopropyl-[[5-(trifluoromethyl)-2-pyridyl]methyl]amino]-5-fluoro-pyrimidin-4-yl]amino]methyl]phenyl]acetamide] | < 500 | > 80 | >50 | 
Fc1c(NCc2ccc(Cc3nnn[nH]3)cc2)ncnc1N(Cc1ccc(-n2cccn2)cc1)C1CC1 [Example A88, N4-cyclopropyl-5-fluoro-N4-[(4-pyrazol-1-ylphenyl)methyl]-N6-[[4-(1H-tetrazol-5-ylmethyl)phenyl]methyl]pyrimidine-4,6-diamine] | < 500 | > 50 | >0 | 
CS(=O)(=O)c1ccc(CNc2ncnc(N(Cc3ccc(C(F)(F)F)cc3)C3CC3)c2F)cn1 [Example A89, N6-cyclopropyl-5-fluoro-N4-[(6-methylsulfonyl-3-pyridyl)methyl]-N6-[[4-(trifluoromethyl)phenyl]methyl] pyrimidine-4,6-diamine] | < 500 | > 80 | >80 | 
CC(C)n1nc(C2CC2)cc1CN(c1ncnc(NCc2ccc(CC(N)=O)cc2)c1F)C1CC1 [Example A90, 2-[4-[[[6-[cyclopropyl-[(5-cyclopropyl-2-isopropyl-pyrazol-3-yl)methyl]amino]-5-fluoro-pyrimidin-4-yl]amino]methyl]phenyl]acetamide] | < 500 | > 0 |  | 
O=S(=O)(Nc1ccc(CNc2ncnc(N(Cc3ccc(C(F)(F)F)cc3)C3CC3)c2F)cc1)C(F)F [Example A91, N-[4-[[[6-[cyclopropyl-[[4-(trifluoromethyl)phenyl]methyl]amino]-5-fluoro-pyrimidin-4-yl]amino]methyl]phenyl]-1,1-difluoro-methanesulfonamide] | < 500 | > 80 | >80 | 
NC(=O)CC1CC(CNc2ncnc(N(Cc3ccc(C(F)(F)F)cc3)C3CC3)c2F)C1 (stereo not shown) [Example A95, 2-[3-[[[6-[cyclopropyl-[[4-(trifluoromethyl)phenyl]methyl]amino]-5-fluoro-pyrimidin-4-yl]amino]methyl]cyclobutyl] acetamide] | < 1000 | > 80 | >20 | 
